Assay results published in PubChem BioAssay AID1963983 (Molecular Pharmacology Branch, DTP, NCI, 2024).
Where “and” joins values, the source holds several entries; their conditions need not be identical. Equal values may be shown once.

System: 186277-243-T-J2-PDC multi-cell spheroid viability
Experiment: Anticancer human tumor 186277-243-T-J2-PDC patient-derived colon adenocarcinoma cell line growth inhibition [PI3K]
Conditions: for viability, T/C: stronger effect = lower value
Procedure, shortened: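 High-throughput combination screen: PI3K inhibitors crossed with targeted small molecules on complex spheroids of tumor cells, HUVEC and MSCs at 37 degrees C, 5% CO2. Top concentration was at or near clinical Cmax (otherwise 10 microM), with half-log decrements.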

[1] = curve of first compound, second compound 0.00316 µM
[2] = curve of first compound, second compound 0.01 µM
[3] = curve of first compound, second compound 0.0316 µM
[4] = curve of first compound, second compound 0.1 µM
[5] = curve of first compound, second compound 0.316 µM
[6] = curve of first compound, second compound 1 µM
[7] = second compound 0.00316 µM, first compound 0.0316 µM
[8] = second compound 0.00316 µM, first compound 0.1 µM
[9] = second compound 0.00316 µM, first compound 0.316 µM
[10] = second compound 0.00316 µM, first compound 1 µM
[11] = second compound 0.01 µM, first compound 0.0316 µM
[12] = second compound 0.01 µM, first compound 0.1 µM
[13] = second compound 0.01 µM, first compound 0.316 µM
[14] = second compound 0.01 µM, first compound 1 µM
[15] = second compound 0.0316 µM, first compound 0.0316 µM
[16] = second compound 0.0316 µM, first compound 0.1 µM
[17] = second compound 0.0316 µM, first compound 0.316 µM
[18] = second compound 0.0316 µM, first compound 1 µM
[19] = second compound 0.1 µM, first compound 0.0316 µM
[20] = second compound 0.1 µM, first compound 0.1 µM
[21] = second compound 0.1 µM, first compound 0.316 µM
[22] = second compound 0.1 µM, first compound 1 µM
[23] = second compound 0.316 µM, first compound 0.0316 µM
[24] = second compound 0.316 µM, first compound 0.1 µM
[25] = second compound 0.316 µM, first compound 0.316 µM
[26] = second compound 0.316 µM, first compound 1 µM
[27] = second compound 1 µM, first compound 0.0316 µM
[28] = second compound 1 µM, first compound 0.1 µM
[29] = second compound 1 µM, first compound 0.316 µM
[30] = second compound 1 µM, first compound 1 µM
[31] = second compound 0.0316 µM, first compound 3.16 µM
[32] = second compound 0.0316 µM, first compound 10 µM
[33] = second compound 0.1 µM, first compound 3.16 µM
[34] = second compound 0.1 µM, first compound 10 µM
[35] = second compound 0.316 µM, first compound 3.16 µM
[36] = second compound 0.316 µM, first compound 10 µM
[37] = second compound 1 µM, first compound 3.16 µM
[38] = second compound 1 µM, first compound 10 µM
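Also: spheroids exposed to compounds for seven days before viability reading.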
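For viability, T/C in this document: 100% = DMSO vehicle control viability.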

With `CCN1CCN(Cc2ccc(Nc3ncc(F)c(-c4cc(F)c5nc(C)n(C(C)C)c5c4)n3)nc2)CC1` + CC(Nc1ccc2c(c1)OCCn1cc(N3C(=O)OCC3C(F)F)nc1-2)C(N)=O the IC50 [1] was greater than 1000 nM, the IC50 [2] was greater than 1000 nM and the IC50 [3] was greater than 1000 nM. For the same compound, the IC50 [4] was greater than 1000 nM, the IC50 [5] was 40.3 nM and the IC50 [6] was less than 3.16 nM. For the same compound, the viability, T/C (second compound 0.00316 µM, first compound 0.00316 µM) was 99.4%, the viability, T/C (second compound 0.00316 µM, first compound 0.01 µM) was 94.3% and the viability, T/C [7] was 102%. It also gave a viability, T/C [8] of 143%, a viability, T/C [9] of 165% and a viability, T/C [10] of 128%. It also gave a viability, T/C (second compound 0.01 µM, first compound 0.00316 µM) of 124%, a viability, T/C (second compound 0.01 µM, first compound 0.01 µM) of 85% and a viability, T/C [11] of 106%. For the same compound, the viability, T/C [12] was 132%, the viability, T/C [13] was 142% and the viability, T/C [14] was 133%. For the same compound, the viability, T/C (second compound 0.0316 µM, first compound 0.00316 µM) was 98.9%, the viability, T/C (second compound 0.0316 µM, first compound 0.01 µM) was 93.3% and the viability, T/C [15] was 107%. It also gave a viability, T/C [16] of 113%, a viability, T/C [17] of 124% and a viability, T/C [18] of 103%. For the same compound, the viability, T/C (second compound 0.1 µM, first compound 0.00316 µM) was 105%, the viability, T/C (second compound 0.1 µM, first compound 0.01 µM) was 95.1% and the viability, T/C [19] was 83%. The viability, T/C [20] was 81.8%, the viability, T/C [21] was 75.9% and the viability, T/C [22] was 62.5%. The viability, T/C (second compound 0.316 µM, first compound 0.00316 µM) was 67.6%, the viability, T/C (second compound 0.316 µM, first compound 0.01 µM) was 74.8% and the viability, T/C [23] was 52.5%. For the same compound, the viability, T/C [24] was 42.8%, the viability, T/C [25] was 42.5% and the viability, T/C [26] was 36.2%. For the same compound, the viability, T/C (second compound 1 µM, first compound 0.00316 µM) was 37.3%, the viability, T/C (second compound 1 µM, first compound 0.01 µM) was 37.8% and the viability, T/C [27] was 28.3%. It also gave a viability, T/C [28] of 28%, a viability, T/C [29] of 31% and a viability, T/C [30] of 24.5%.
`C#Cc1c(F)ccc2cc(O)cc(-c3ncc4c(N5CC6CCC(C5)N6)nc(OCC56CCCN5CC(F)C6)nc4c3F)c12` (stereo not given) + CC(Nc1ccc2c(c1)OCCn1cc(N3C(=O)OCC3C(F)F)nc1-2)C(N)=O gave an IC50 [1] of 60.3 nM, an IC50 [2] of 58.9 nM and an IC50 [3] of less than 31.6 nM. For the same compound, the IC50 [4] was less than 31.6 nM, the IC50 [5] was less than 31.6 nM and the IC50 [6] was less than 31.6 nM. For the same compound, the viability, T/C [7] was 73.4%, the viability, T/C [8] was 31.6% and the viability, T/C [9] was 16.4%. The viability, T/C [10] was 16.3%, the viability, T/C (second compound 0.00316 µM, first compound 3.16 µM) was 12.6% and the viability, T/C (second compound 0.00316 µM, first compound 10 µM) was 8.99%. It also gave a viability, T/C [11] of 72.2%, a viability, T/C [12] of 31.1% and a viability, T/C [13] of 15.8%. The viability, T/C [14] was 11.8%, the viability, T/C (second compound 0.01 µM, first compound 3.16 µM) was 14% and the viability, T/C (second compound 0.01 µM, first compound 10 µM) was 9.85%. For the same compound, the viability, T/C [15] was 48.9%, the viability, T/C [16] was 23.6% and the viability, T/C [17] was 13.1%. For the same compound, the viability, T/C [18] was 14.6%, the viability, T/C [31] was 7.53% and the viability, T/C [32] was 7.66%. The viability, T/C [19] was 24.8%, the viability, T/C [20] was 9.05% and the viability, T/C [21] was 12.4%. The viability, T/C [22] was 7.52%, the viability, T/C [33] was 6.59% and the viability, T/C [34] was 4.7%. The viability, T/C [23] was 10.9%, the viability, T/C [24] was 7.34% and the viability, T/C [25] was 4.32%. It also gave a viability, T/C [26] of 4.02%, a viability, T/C [35] of 4.87% and a viability, T/C [36] of 2.61%. The viability, T/C [27] was 15.1%, the viability, T/C [28] was 8.27% and the viability, T/C [29] was 6.04%. For the same compound, the viability, T/C [30] was 3.18%, the viability, T/C [37] was 3.45% and the viability, T/C [38] was 1.57%.
In the case of `Cn1cnc2c(F)c(Nc3ccc(Br)cc3Cl)c(C(=O)NOCCO)cc21`, the viability, T/C (compound 0.00949 µM) is reported as 97.9% [middle of 4 runs], the viability, T/C (compound 0.03 µM) is reported as 87.4% [middle of 4 runs] and the viability, T/C (compound 0.0949 µM) is reported as 61.9% [middle of 4 runs]. For the same compound, the viability, T/C (compound 0.3 µM) was 38% and 43.4% (2×) and 37.6%, the viability, T/C (compound 0.949 µM) was 22.7% [middle of 4 runs] and the viability, T/C (compound 3 µM) was 9.95% [middle of 4 runs]. For the same compound, the IC50 (curve of compound) was 193 nM [middle of 4 runs].
`CCN1CCN(Cc2ccc(Nc3ncc(F)c(-c4cc(F)c5nc(C)n(C(C)C)c5c4)n3)nc2)CC1` was tested, and the viability, T/C (compound 0.00316 µM) was 102% [middle of 4 runs], the viability, T/C (compound 0.01 µM) was 101% [middle of 4 runs] and the viability, T/C (compound 0.0316 µM) was 106% [middle of 4 runs]. The viability, T/C (compound 0.1 µM) was 130% [middle of 4 runs], the viability, T/C (compound 0.316 µM) was 146% and 156% and 145% (2×) and the viability, T/C (compound 1 µM) was 146% [middle of 4 runs]. It also gave an IC50 (curve of compound) greater than 1000 nM.
`Cn1ncc(Cl)c1-c1cc(C(=O)NC(CN)Cc2cccc(F)c2)sc1Cl` (stereo not given) + Cc1nc(NC(=O)N2CCCC2C(N)=O)sc1-c1ccnc(C(C)(C)C(F)(F)F)c1 was tested, and the IC50 [3] was 960 nM, the IC50 [4] was 253 nM and the IC50 [5] was 225 nM. It also gave an IC50 [6] of 157 nM, an IC50 (curve of first compound, second compound 3.16 µM) of less than 31.6 nM and an IC50 (curve of first compound, second compound 10 µM) of less than 31.6 nM. For the same compound, the viability, T/C [15] was 96.2%, the viability, T/C [16] was 87.8% and the viability, T/C [17] was 56.8%. For the same compound, the viability, T/C [18] was 47.8%, the viability, T/C [31] was 43% and the viability, T/C [32] was 17.3%. The viability, T/C [19] was 112%, the viability, T/C [20] was 68% and the viability, T/C [21] was 43.4%. It also gave a viability, T/C [22] of 32.4%, a viability, T/C [33] of 33.2% and a viability, T/C [34] of 11.6%. The viability, T/C [23] was 114%, the viability, T/C [24] was 66.2% and the viability, T/C [25] was 43%. It also gave a viability, T/C [26] of 26.3%, a viability, T/C [35] of 25.3% and a viability, T/C [36] of 9.1%. For the same compound, the viability, T/C [27] was 95%, the viability, T/C [28] was 65.7% and the viability, T/C [29] was 25%. For the same compound, the viability, T/C [30] was 14.7%, the viability, T/C [37] was 17.2% and the viability, T/C [38] was 3.49%. The viability, T/C (second compound 3.16 µM, first compound 0.0316 µM) was 48.7%, the viability, T/C (second compound 3.16 µM, first compound 0.1 µM) was 33.7% and the viability, T/C (second compound 3.16 µM, first compound 0.316 µM) was 19.6%. The viability, T/C (second compound 3.16 µM, first compound 1 µM) was 13.7%, the viability, T/C (second compound 3.16 µM, first compound 3.16 µM) was 8.89% and the viability, T/C (second compound 3.16 µM, first compound 10 µM) was 1.65%. The viability, T/C (second compound 10 µM, first compound 0.0316 µM) was 15.7%, the viability, T/C (second compound 10 µM, first compound 0.1 µM) was 8.3% and the viability, T/C (second compound 10 µM, first compound 0.316 µM) was 6.89%. It also gave a viability, T/C (second compound 10 µM, first compound 1 µM) of 6.6%, a viability, T/C (second compound 10 µM, first compound 3.16 µM) of 3.36% and a viability, T/C (second compound 10 µM, first compound 10 µM) of 3.79%.
